One may read the LD50 as the dose expected to kill half of the subjects tested. The term ED50 denotes the dose at which the effect has come halfway, by size or by number of responders.

Like-named read-outs stand apart in the source and are kept apart here. Bounds are passed on as bounds.

The nature of one data set: in vivo. The note with it: rat, in vivo, ip; one injection i.p., rats; dose causing 50 percent lethality. Details: species or system SPF Wistar rats. An outline of the steps:
(§1)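 SPF Wistar rats were implanted i.p. with 5 × 10^6 AH 130 cells and given one i.p. dose the next day. On day 8 they were killed and tumour weights were compared with controls. ED50 is the dose halving tumour size, LD50 the 50% lethal dose, and T.I. is LD50/ED50.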

The test system of another data set is Hepatoma AH 130. Nature of the data set: in vivo. Details: species or system SPF Wistar rats. The note with it: for T.I. (LD50/ED50): Hepatoma AH 130, rats, i.p.; for ED50: Rattus norvegicus, ip, 192 h, one injection i.p. day after implantation, dose causing 50 percent reduction of tumour size. An outline of the steps:
as §1

Data set [1] has as its system Walker carcinosarcoma 256. Nature of the data set: Walker carcinosarcoma 256 test. It is filed as in vivo, Sprague Dawley rats. The settings on record: for Lethality: died/used animals. From the text:
(§2) The experimental design and the interpretation of the results have been in accordance with the standards set by the CCNSC (Cancer Chemotherapy Reports, January 1959 and December 1962), and by the DR&D (Cancer Chemotherapy Reports, September 1972, Vol. 3, No. 2).
(§3) The way of administration is by the intraperitoneal route (i.p.) in each case.
Walker carcinosarcoma 256
Experimental animals: Sprague Dawley rats.
Tumour implant: Tumour pieces with 2-4 mm diameter, subcutaneously.
Therapy: Daily injections i.p. for 5 days starting on the day following implantation.
Termination: The animals are killed on the 9th day.
Evaluation: Weights of tumours of test animals are compared with those of control animals. The differences, in per cent of weights of tumours of control animals, give per cent tumour inhibition.
The lethality is given as the number of animals which died in the experiment/the number of animals used in the experiments.

Data set [2] concerns Ehrlich ascites tumour, ELD hyperdiploid (46 chromosomes). Nature of the data set: Ehrlich ascites tumour test (LD50, ED50, therapeutic index). It is filed as in vivo, SPF NMRI mice. The note with it: for anti-tumor activity: additional compounds, result in words; for T.I. (LD50/ED50): Ehrlich ascites, mice, i.p.; for ED50: Mus musculus, Ehrlich, ip. The gist of the method:
(§4)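 SPF NMRI mice implanted i.p. with 2 × 10^6 Ehrlich ascites (ELD hyperdiploid) cells and given a single i.p. dose the next day; killed on day 8. ED50 = dose halving tumour weight versus controls, LD50 = dose lethal to 50%; T.I. = LD50/ED50.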

Data set [3] relates to Lymphatic leukemia L 1210. Nature of the data set: Lymphatic leukemia L 1210 test. The settings on record: for Effect %: survival time as percentage of control; for Weight change v: vs control up to the 5th day; for effect on L 1210: result in words, dose not given. It is filed as in vivo, CDF1 (C3H×DBA/2)F1 mice.
Description: as §2, §3
Lymphatic leukemia L 1210
Experimental animals: CDF1 (C3H×DBA/2)F1 mice.
Tumour implant: 10^5 tumour cells i.p.
Therapy: One injection i.p. on the day following implantation.
Evaluation: a) The survival time of the test animals (t) expressed as the percentage of that of control animals (c).
b. Weight change in the test animals (T) compared with that of the control animals (c) up to the 5th day.
c. The mortality rate must not exceed 35% in the test animals on the 5th day of therapy.

Data set [4] in a line: Ehrlich ascites tumour test (LD50, ED50, therapeutic index). The settings on record: mouse, in vivo, ip; one injection i.p., mice; dose causing 50 percent lethality. It is filed as in vivo, SPF NMRI mice. An outline of the steps:
as §4

The conditions of data set [5]: acute intraperitoneal toxicity in mice; cited from earlier work.
Where [6] appears, read: one injection i.p. day after implantation, dose causing 50 percent reduction of tumour size, read-out: ED50.

In turn, `C[C@]12CC[C@H]3[C@@H](CCC4=CC(=O)CC[C@@H]43)[C@@H]1CC[C@@H]2OC(=O)N(CCCl)N=O` [19-nortestosterone-17β-N-(2-chloroethyl)-N-nitroso carbamate] had an LD50 in the data set “in vivo” of 150 mg/kg. In addition, in the data set with Hepatoma AH 130, the “T.I. (LD50/ED50)” value stood at 300 and the median effective dose (ED50) stood at 0.5 mg/kg. Also, in data set [1] (5×63 mg/kg i.p.), the Tumour inhibition % is 65% and the Lethality was 1/8. In addition, the anti-tumor activity entry in data set [2] is “exhibit anti-tumor activity”. In data set [3] (1×31 mg/kg i.p.), the Mortality is on record as 0/40, the Effect % stood at 142% and the Weight change v is recorded as -1.0 g.
In the case of `CS(=O)(=O)OCCCCOS(C)(=O)=O` [Busulfan, reference compound], the LD50 in data set [4] was determined as 71 mg/kg. Besides, the “T.I. (LD50/ED50)” value in data set [2] is reported as 1.3. Further, in data set [2] (setting [6]), the ED50 was found to be 55 mg/kg.
Turning to `CCCCOC(=O)N(CCCl)N=O` [CH3 (CH2)2 CH2 --], the LD50 in data set [5] is 11 to 15 mg/kg.
In data set [4], `O=C(O)CCCc1ccc(N(CCCl)CCCl)cc1` [Chlorambucil, reference compound] had an LD50 of 33 mg/kg.
As to `O=P1(N(CCCl)CCCl)NCCCO1` (stereo not shown) [Cyclofosfamid, reference compound], the LD50 in data set [4] stood at 470 mg/kg. Further, in data set [2], the “T.I. (LD50/ED50)” value is 7.6 and the median effective dose (ED50) amounted to 62 mg/kg.
`O=NN(CCCl)C(=O)Oc1ccccc1` [Phenyl]: the 50% lethal dose (LD50) in data set [5] is 3 to 7 mg/kg.
In turn, `C1CN1c1nc(N2CC2)nc(N2CC2)n1` [Triethylene-melamine, reference compound] returned an LD50 in data set [4] of 2.7 mg/kg. Also, the “T.I. (LD50/ED50)” value in data set [2] amounted to 2.6. In addition, the ED50 in data set [2] (setting [6]) is 1.03 mg/kg.
In data set [4], `S=P(N1CC1)(N1CC1)N1CC1` [Triethylene-thiophosphoramide, reference compound] yielded an LD50 of 22 mg/kg. In data set [2], the “T.I. (LD50/ED50)” value came to 1.5. Also, the ED50 in data set [2] (setting [6]) is 15 mg/kg.
In turn, `C[C@]12CC[C@@H](OC(=O)N(CCCl)N=O)C[C@@H]1CC[C@@H]1[C@@H]2CC[C@]2(C)[C@@H](OC(=O)N(CCCl)N=O)CC[C@@H]12` [androstanediol-3α,17β-bis/N-(2-chloroethyl)-N-nitroso carbamate/] gave an LD50 in “in vivo” of over 1000 mg/kg. Further, in the data set with Hepatoma AH 130, the ED50 was determined as 1 mg/kg. In addition, in data set [1] (5×250 mg/kg i.p.), the Tumour inhibition % was 75% and the Lethality is 1/8. Moreover, the anti-tumor activity result in data set [2] is given as “exhibit anti-tumor activity”. The “effect on L 1210” value in data set [3] is “show a significant effect”.
`C[C@]12CC[C@@H](OC(=O)N(CCCl)N=O)C[C@@H]1CC[C@@H]1[C@@H]2CC[C@]2(C)C(=O)CC[C@@H]12` [androsterone-3α-N-(2-chloroethyl)-N-nitroso carbamate]: the LD50 in “in vivo” was over 1000 mg/kg. For the same molecule, in the data set on Hepatoma AH 130, the “T.I. (LD50/ED50)” value was over 100 and the 50% effect level (ED50) was put at a dose of 10 mg/kg. In addition, in data set [1] (5×250 mg/kg i.p.), the Tumour inhibition % worked out at 82% and the Lethality was 0/8. In addition, the anti-tumor activity entry in data set [2] is “exhibit anti-tumor activity”. For the same molecule, in data set [3] (1×125 mg/kg i.p.), the Mortality was 0/20, the Effect % turned out to be 153% and the Weight change v is on record as -2.4 g.
In turn, `C[C@]12CC[C@H](OC(=O)N(CCCCl)N=O)CC1=CC[C@@H]1[C@@H]2CC[C@]2(C)C(=O)CC[C@@H]12` [dehydroepiandrosterone-3β-N-(3-chloropropyl)-N-nitroso carbamate] had a median lethal dose (LD50) in the data set “in vivo” of over 1000 mg/kg. Moreover, in the data set on Hepatoma AH 130, the “T.I. (LD50/ED50)” value was over 2.7 and the ED50 came to 375 mg/kg. For the same molecule, in data set [1] (5×500 mg/kg i.p.), the Tumour inhibition % is 24% and the Lethality is 0/8. In data set [2], the anti-tumor activity entry was “exhibit anti-tumor activity”.
Take `C[C@]12CCC(=O)C[C@@H]1CC[C@@H]1[C@@H]2CC[C@]2(C)[C@@H](OC(=O)N(CCCl)N=O)CC[C@@H]12` [dihydrotestosterone-17β-N-(2-chloroethyl)-N-nitroso carbamate]: in the data set “in vivo”, the median lethal dose (LD50) was over 1000 mg/kg. In addition, in the data set on Hepatoma AH 130, the median effective dose (ED50) amounted to 1 mg/kg. Also, in data set [1] (5×250 mg/kg i.p.), the Tumour inhibition % came out at 51% and the Lethality was 0/8. Also, in data set [2], the anti-tumor activity entry is given as “exhibit anti-tumor activity”. Also, in data set [3] (1×125 mg/kg i.p.), the Mortality was 0/20, the Effect % came out at 135% and the Weight change v was -0.9 g.
In the case of `C[C@]12CC[C@H](OC(=O)N(CCCl)N=O)C[C@@H]1CC[C@@H]1[C@@H]2CC[C@]2(C)C(=O)CC[C@@H]12` [epiandrosterone-3β-N-(2-chloroethyl)-N-nitroso carbamate], the 50% lethal dose (LD50) in the data set “in vivo” is over 1000 mg/kg. In addition, in the data set with Hepatoma AH 130, the “T.I. (LD50/ED50)” value was over 5.000 and the ED50 was 0.2 mg/kg. Further, in data set [1] (5×125 mg/kg i.p.), the Tumour inhibition % is listed as 47% and the Lethality is reported as 0/8. In data set [2], the anti-tumor activity entry is “exhibit anti-tumor activity”. For the same molecule, in data set [3] (1×250 mg/kg i.p.), the Mortality is 0/20, the Effect % was 130% and the Weight change v is -1.6 g.
With `C[C@]12CC[C@@H]3c4ccc(OC(=O)c5ccccc5)cc4CC[C@H]3[C@@H]1CC[C@@H]2OC(=O)N(CCCl)N=O` [estradiol-3-benzoate-17β-N-(2-chloroethyl)-N-nitroso carbamate], the median lethal dose (LD50) in the data set “in vivo” is over 1000 mg/kg. In the data set with Hepatoma AH 130, the “T.I. (LD50/ED50)” value was over 16 and the median effective dose (ED50) was under 63 mg/kg. Moreover, in data set [1] (5×125 mg/kg i.p.), the Tumour inhibition % is listed as 73% and the Lethality is on record as 0/8. The anti-tumor activity result in data set [2] was “exhibit anti-tumor activity”.
Consider `COc1ccc2c(c1)CC[C@@H]1[C@@H]2CC[C@]2(C)[C@@H](OC(=O)N(CCCl)N=O)CC[C@@H]12` [estradiol-3-methylether-17β-N-(2-chloroethyl)-N-nitroso carbamate], for which, in the data set “in vivo”, the 50% lethal dose (LD50) is over 1000 mg/kg. Besides, in the data set on Hepatoma AH 130, the “T.I. (LD50/ED50)” value was over 2.000 and the median effective dose (ED50) was 0.5 mg/kg. Besides, in data set [1] (5×250 mg/kg i.p.), the Tumour inhibition % is 66% and the Lethality is 0/8. In data set [2], the anti-tumor activity entry is given as “exhibit anti-tumor activity”.
In turn, `CC(=O)O[C@H]1CC[C@H]2[C@@H]3CCc4cc(OC(=O)N(CCCl)N=O)ccc4[C@H]3CC[C@]12C` [estradiol-17β-acetate-3-N-(2-chloroethyl)-N-nitroso carbamate] displayed an LD50 in “in vivo” of over 1000 mg/kg. In addition, in the data set on Hepatoma AH 130, the “T.I. (LD50/ED50)” value is given as over 4.000 and the 50% effective dose (ED50) is under 0.25 mg/kg. In data set [1] (5×125 mg/kg i.p.), the Tumour inhibition % was 69% and the Lethality is recorded as 1/8. In addition, the anti-tumor activity result in data set [2] is “exhibit anti-tumor activity”.
Regarding `C[C@]12CC[C@@H]3c4ccc(OC(=O)N(CCCl)N=O)cc4CC[C@H]3[C@@H]1CCC2=O` [estrone-3-N-(2-chloroethyl)-N-nitroso carbamate], in “in vivo”, the LD50 was over 1000 mg/kg. Moreover, in the data set on Hepatoma AH 130, the “T.I. (LD50/ED50)” value is listed as over 2.000 and the median effective dose (ED50) was 0.5 mg/kg. Further, in data set [1] (5×125 mg/kg i.p.), the Tumour inhibition % was 75% and the Lethality is reported as 0/8. In addition, in data set [2], the anti-tumor activity result is on record as “exhibit anti-tumor activity”. In addition, in data set [3], the “effect on L 1210” value is “show a significant effect”.
As for `CC(=O)[C@H]1CC[C@H]2[C@@H]3CC=C4C[C@@H](OC(=O)N(CCCl)N=O)CC[C@]4(C)[C@H]3CC[C@]12C` [pregnenolone-3β-N-(2-chloroethyl)-N-nitroso carbamate], the LD50 in the data set “in vivo” was over 1000 mg/kg. For the same molecule, in the data set on Hepatoma AH 130, the “T.I. (LD50/ED50)” value was over 526 and the ED50 is 1.9 mg/kg. In addition, in data set [1] (5×500 mg/kg i.p.), the Tumour inhibition % stood at 55% and the Lethality is 0/8. The anti-tumor activity result in data set [2] is “exhibit anti-tumor activity”. Also, in data set [3] (1×500 mg/kg i.p.), the Mortality was 0/20, the Effect % amounted to 136% and the Weight change v is recorded as -0.8 g.
`O=NN(CCCl)C(=O)Oc1ccc2ccccc2c1` [β-Naphthyl]: in data set [5], the LD50 is listed as 42 mg/kg.

The record behind these values is patent publication US3963707A, “Novel N-nitroso compounds, compositions containing such compounds, processes for their preparation and methods of treatment therewith, and novel intermediates” (Aktiebolaget Leo, priority 1973, dated 1976).
